Reference: patent US6403830B2, “Amidino compound and salts thereof useful as nitric oxide synthase inhibitors” (Pharmacia Corporation, priority 2000, dated 2002)
Structures can show the parent of a compound that is named as a salt.

Legend:
[1] = target: T1, Human inducible NOS (hiNOS) (Homo sapiens, UniProt P35228); assay: Citrulline assay for nitric oxide synthase, hiNOS; type: biochemical; settings: recombinant enzyme, 30 μM L-arginine; averages across all experiments and all lots
T1 construct: made in house; host or cells: Sf9 insect cells (baculovirus vector)
T1 sequence (P35228 whole entry): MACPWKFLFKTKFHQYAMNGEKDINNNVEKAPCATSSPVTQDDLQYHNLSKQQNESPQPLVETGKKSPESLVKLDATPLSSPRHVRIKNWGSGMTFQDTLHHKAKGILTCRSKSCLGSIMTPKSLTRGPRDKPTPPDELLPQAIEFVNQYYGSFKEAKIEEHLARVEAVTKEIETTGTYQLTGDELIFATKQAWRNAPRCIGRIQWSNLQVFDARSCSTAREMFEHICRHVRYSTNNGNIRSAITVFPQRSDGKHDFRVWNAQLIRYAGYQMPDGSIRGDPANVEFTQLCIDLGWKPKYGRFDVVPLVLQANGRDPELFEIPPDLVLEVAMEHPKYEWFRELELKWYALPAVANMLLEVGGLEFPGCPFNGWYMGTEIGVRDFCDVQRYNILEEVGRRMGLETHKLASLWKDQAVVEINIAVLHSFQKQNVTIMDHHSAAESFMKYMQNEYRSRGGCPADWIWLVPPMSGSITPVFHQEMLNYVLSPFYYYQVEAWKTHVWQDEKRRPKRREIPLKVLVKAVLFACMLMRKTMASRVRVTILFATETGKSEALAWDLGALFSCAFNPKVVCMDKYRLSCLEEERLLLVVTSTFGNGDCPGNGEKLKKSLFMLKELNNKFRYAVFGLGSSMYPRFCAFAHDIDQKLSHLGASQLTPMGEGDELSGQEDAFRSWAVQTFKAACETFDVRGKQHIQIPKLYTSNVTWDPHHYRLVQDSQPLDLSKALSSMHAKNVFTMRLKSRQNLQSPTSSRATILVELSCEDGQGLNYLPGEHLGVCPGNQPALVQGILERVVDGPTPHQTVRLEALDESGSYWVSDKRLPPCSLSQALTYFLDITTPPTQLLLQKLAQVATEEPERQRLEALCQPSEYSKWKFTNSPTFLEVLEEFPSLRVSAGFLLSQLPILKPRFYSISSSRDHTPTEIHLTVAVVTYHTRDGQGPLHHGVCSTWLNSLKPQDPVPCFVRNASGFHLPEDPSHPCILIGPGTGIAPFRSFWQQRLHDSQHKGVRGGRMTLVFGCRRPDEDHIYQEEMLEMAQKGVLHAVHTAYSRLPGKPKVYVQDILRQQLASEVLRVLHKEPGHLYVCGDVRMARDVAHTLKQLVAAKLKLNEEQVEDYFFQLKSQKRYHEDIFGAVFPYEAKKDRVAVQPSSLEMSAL
Source text: (§1) Nitric oxide synthase (NOS) activity can be measured by monitoring the conversion of L-[2,3-^3H]-arginine to L-[2,3-^3H]-citrulline (Bredt and Snyder, Proc. Natl. Acad. Sci. U.S.A., 87, 682-685, 1990 and Moore et al, J. Med. Chem. 39, 669-672, 1996). Human inducible NOS (hiNOS), human endothelial constitutive NOS (hecNOS) and human neuronal constitutive NOS (hncNOS) are each cloned from RNA extracted from human tissue. The cDNA for human inducible NOS (hiNOS) is isolated from a λcDNA library made from RNA extracted from a colon sample from a patient with ulcerative colitis. The cDNA for human endothelial constitutive NOS (hecNOS) is isolated from a λcDNA library made from RNA extracted from human umbilical vein endothelial cells (HUVEC) and the cDNA for human neuronal constitutive NOS (hncNOS) is isolated from a λcDNA library made from RNA extracted from human cerebellum obtained from a cadaver. The recombinant enzymes are expressed in Sf9 insect cells using a baculovirus vector (Rodi et al, in The Biology of Nitric Oxide, Pt. 4: Enzymology, Biochemistry and Immunology: Moncada, S., Feelisch, M., Busse, R., Higgs, E., Eds.; Portland Press Ltd.: London, 1995; pp 447-450). Enzyme activity is isolated from soluble cell extracts and partially purified by DEAE-Sepharose chromatography. To measure NOS activity, 10 μL of enzyme is added to 40 μL of 50 mM Tris (pH 7.6) in the presence or absence of test compounds and the reaction initiated by the addition of 50 μL of a reaction mixture containing 50 mM Tris (pH 7.6), 2.0 mg/mL bovine serum albumin, 2.0 mM DTT, 4.0 mM CaCl2, 20 μM FAD, 100 μM tetrahydrobiopterin, 0.4 mM NADPH and 60 μM L-arginine containing 0.9 μCi of L-[2,3-^3H]-arginine. The final concentration of L-arginine in the assay is 30 μM. For hecNOS or hncNOS, calmodulin is included at a final concentration of 40-100 nM. Following incubation at 37° C. for 15 minutes, the reaction is terminated by addition of 400 μL of a suspension (1 part resin, 3 parts buffer) of Dowex 5OW X-8 cation exchange resin in a stop buffer containing 10 mM EGTA, 100 mM HEPES, pH 5.5 and 1 mM L-citrulline. After mixing the resin is allowed to settle and L-[2,3-^3H]-Citrulline formation is determined by counting aliquots of the supernatant with a liquid scintillation counter. Results are reported in Table 1 as the IC50 values of compounds for hiNOS, hecNOS and hncNOS.

[2] = target: T2, human endothelial constitutive NOS (hecNOS) (Homo sapiens, UniProt P29474); assay: Citrulline assay for nitric oxide synthase, hecNOS; type: biochemical; settings: recombinant enzyme, 30 μM L-arginine, calmodulin; averages across all experiments and all lots
T2 construct: made in house; host or cells: Sf9 insect cells (baculovirus vector)
T2 sequence (P29474 2-1203): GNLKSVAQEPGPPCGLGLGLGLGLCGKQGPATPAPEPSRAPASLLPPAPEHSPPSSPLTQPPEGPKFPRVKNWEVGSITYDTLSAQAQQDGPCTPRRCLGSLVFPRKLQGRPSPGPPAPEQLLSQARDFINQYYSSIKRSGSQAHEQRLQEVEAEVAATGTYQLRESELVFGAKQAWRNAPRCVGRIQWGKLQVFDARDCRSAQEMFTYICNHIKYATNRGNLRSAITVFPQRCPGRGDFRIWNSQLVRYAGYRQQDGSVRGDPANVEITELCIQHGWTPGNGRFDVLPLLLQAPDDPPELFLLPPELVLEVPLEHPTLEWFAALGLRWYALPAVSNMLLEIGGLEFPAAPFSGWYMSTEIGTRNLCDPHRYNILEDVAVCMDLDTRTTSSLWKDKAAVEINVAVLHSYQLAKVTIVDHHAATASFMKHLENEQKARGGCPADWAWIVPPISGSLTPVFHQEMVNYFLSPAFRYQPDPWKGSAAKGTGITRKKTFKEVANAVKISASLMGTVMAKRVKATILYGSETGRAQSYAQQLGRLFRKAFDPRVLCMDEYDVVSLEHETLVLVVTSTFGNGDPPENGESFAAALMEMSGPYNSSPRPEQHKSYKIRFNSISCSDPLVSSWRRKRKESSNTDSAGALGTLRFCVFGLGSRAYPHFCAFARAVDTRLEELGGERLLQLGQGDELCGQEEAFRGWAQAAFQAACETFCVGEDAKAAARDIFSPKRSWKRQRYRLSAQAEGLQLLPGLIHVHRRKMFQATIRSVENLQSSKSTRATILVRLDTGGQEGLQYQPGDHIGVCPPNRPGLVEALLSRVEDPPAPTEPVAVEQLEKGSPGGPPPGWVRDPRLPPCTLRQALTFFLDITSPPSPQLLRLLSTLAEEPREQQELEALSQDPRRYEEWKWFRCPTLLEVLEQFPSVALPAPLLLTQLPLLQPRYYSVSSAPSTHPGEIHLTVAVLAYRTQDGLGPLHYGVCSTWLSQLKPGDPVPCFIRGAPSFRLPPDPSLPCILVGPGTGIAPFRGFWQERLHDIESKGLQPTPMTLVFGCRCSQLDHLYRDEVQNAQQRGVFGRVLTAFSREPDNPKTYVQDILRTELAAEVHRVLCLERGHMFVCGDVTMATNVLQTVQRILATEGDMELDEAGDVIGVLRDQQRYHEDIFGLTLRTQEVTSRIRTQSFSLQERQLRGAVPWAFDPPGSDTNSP
Source text: as §1

[3] = target: T3, human neuronal constitutive NOS (hncNOS) (Homo sapiens, UniProt P29475); assay: Citrulline assay for nitric oxide synthase, hncNOS; type: biochemical; settings: recombinant enzyme, 30 μM L-arginine, calmodulin; averages across all experiments and all lots
T3 construct: made in house; host or cells: Sf9 insect cells (baculovirus vector)
T3 sequence (P29475 whole entry): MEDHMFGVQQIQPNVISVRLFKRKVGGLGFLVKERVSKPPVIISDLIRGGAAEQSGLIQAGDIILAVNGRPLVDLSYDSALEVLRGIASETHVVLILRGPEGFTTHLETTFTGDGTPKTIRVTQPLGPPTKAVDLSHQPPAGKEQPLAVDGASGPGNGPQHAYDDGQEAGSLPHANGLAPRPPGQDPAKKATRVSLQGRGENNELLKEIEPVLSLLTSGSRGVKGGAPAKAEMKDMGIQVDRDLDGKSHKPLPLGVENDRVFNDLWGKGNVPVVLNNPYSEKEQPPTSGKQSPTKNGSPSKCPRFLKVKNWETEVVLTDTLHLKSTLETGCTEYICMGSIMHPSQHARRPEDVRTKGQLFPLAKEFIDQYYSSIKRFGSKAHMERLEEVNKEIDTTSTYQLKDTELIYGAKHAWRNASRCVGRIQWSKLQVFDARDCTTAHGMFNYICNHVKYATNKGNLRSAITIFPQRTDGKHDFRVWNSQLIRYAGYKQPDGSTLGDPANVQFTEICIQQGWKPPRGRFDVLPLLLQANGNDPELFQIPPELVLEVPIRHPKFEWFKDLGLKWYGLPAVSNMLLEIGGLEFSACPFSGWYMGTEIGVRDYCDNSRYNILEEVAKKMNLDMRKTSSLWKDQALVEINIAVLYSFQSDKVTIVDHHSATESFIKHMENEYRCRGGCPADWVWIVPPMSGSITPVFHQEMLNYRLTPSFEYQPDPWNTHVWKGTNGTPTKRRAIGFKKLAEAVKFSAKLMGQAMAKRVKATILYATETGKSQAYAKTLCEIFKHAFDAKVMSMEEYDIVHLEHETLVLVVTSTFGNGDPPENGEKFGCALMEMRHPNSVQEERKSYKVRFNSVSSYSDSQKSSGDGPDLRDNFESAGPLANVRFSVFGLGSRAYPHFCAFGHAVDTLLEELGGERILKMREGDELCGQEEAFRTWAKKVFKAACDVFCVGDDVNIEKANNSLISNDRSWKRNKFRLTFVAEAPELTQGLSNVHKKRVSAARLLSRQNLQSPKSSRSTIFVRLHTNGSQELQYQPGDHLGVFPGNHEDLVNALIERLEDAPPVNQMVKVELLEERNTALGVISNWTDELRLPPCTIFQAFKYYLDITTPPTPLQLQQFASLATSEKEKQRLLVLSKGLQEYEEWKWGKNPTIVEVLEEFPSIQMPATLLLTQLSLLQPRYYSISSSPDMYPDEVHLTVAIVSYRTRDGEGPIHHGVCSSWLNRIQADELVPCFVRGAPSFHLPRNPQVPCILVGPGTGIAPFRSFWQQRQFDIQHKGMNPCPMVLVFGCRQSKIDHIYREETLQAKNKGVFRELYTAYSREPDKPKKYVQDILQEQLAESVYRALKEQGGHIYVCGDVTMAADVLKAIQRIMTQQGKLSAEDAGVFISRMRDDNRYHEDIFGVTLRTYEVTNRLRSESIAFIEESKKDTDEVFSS
Source text: as §1

[4] = system: nitrite production in human cartilage explants induced with recombinant human IL-1β; assay: Human Cartilage Explant Assay; type: cell-based; settings: inhibition of nitrite production, IL-1β-stimulated explants, averages across all experiments and all lots

Row | IC50 [1] [µM] | IC50 [2] [µM] | IC50 [3] [µM] | SMILES | IC50 [4] [µM]
1 | 12 | > 100 | 181 | CC(=N)NCC[S+]([O-])C[C@](C)(N)C(=O)O (mixture of isomers) [Example 18, (2R)-2-Amino-3[[2-[(1-iminoethyl)amino]ethyl]sulfmyl]-2-methylpropanoic acid, dihydrochloride] | 
2 | 74 | 266 | 86 | CC(=N)NC[C@@H](C)SC[C@](C)(N)C(=O)O [Example 3, S-[(1R)-2-[(1-Iminoethyl)amino]-1-methylethyl]-2-methyl-L-cysteine, dihydrochloride] | 
3 | 197 | 1100 | 539 | CC(=N)NC[C@H](C)SC[C@](C)(N)C(=O)O [Example 4, S-[(1S)-2-[(1-Iminoethyl)aminol-1-methylethyl]-2-methyl-L-cysteine, dihydrochloride] | 
4 | 3.4 | 78 | 17 | CC[C@](N)(CSCCNC(C)=N)C(=O)O [Example 7, S-[2-[(1-Iminoethyl)amino]ethyl]-2-ethyl-L-cysteine, dihydrochloride] | 
5 | 0.9 | 26 | 6 | CC(=N)NCCSC[C@](N)(C(=O)O)C(C)C [Example 11, 2-[[[[2-(1-Iminoethyl)amino]ethyl]thio]methyl]-D-valine, dihydrochloride] | 
6 | 12 | 1080 | 220 | CC(=N)NCCS(=O)(=O)C[C@](C)(N)C(=O)O [Example 19, (2R)-2-Amino-3[[2-[(1-iminoethyl)amino]ethyl]sulfonyl]-2-methylpropanoic acid dihydrochloride] | 

Row | SMILES | IC50 [1] [µM] | IC50 [2] [µM] | IC50 [3] [µM] | IC50 [4] [µM]
7 | CC(=N)NCCSC[C@](C)(N)C(=O)O [Example 1, S-[2-[(1-Iminoethyl)amino]ethyl]-2-methyl-L-cysteine, dihydrochloride] | 3.1 | 77 | 15 | 0.7
8 | COC[C@](N)(CSCCNC(C)=N)C(=O)O [Example 2, 2-[[[2-[(1-Iminoethyl)amino]ethyl]thio]methyl]-O-methyl-D-serine, dihydrochloride] | 4.4 | 302 | 58 | 
9 | CC(=N)NCCSCC(C)(N)C(=O)O (stereo not drawn) [Example 16, S-[2-(1-Iminoethylamino)ethyl]-2-methyl-(D/L)-cysteine, bistrifluoroacetate] | 7.2 | > 100 | 36 | 0.7
